From US20060014801A1, “Prevention and treatment of cognitive impairment using (R)-(-)-5-methyl-1-nicotynoyl-2-pyrazoline (MNP) and analogs” (The Johns Hopkins University, priority 2002, published 2006)
Like-named read-outs stand apart in the source and are kept apart here.

How the values were obtained:
GLT1B = experiment: Western blot of GLT1B protein expression in hippocampus of young rats after 7 days s.c. MNP; format: in vivo, Long-Evans rats; details: 50 mg/kg/day s.c. minipump
Method: Administration of MNP: Twelve young Long-Evans rats, weighing approximately 400-500 grams, received treatment with either vehicle (0.9% saline; n=6) or MNP (50 mg/kg/day; n=6). The rats were administered MNP and vehicle continuously for one week via an osmotic minipump (Alzet, model 2ML1) implanted subcutaneously on the back, slightly posterior to the scapulae. After 7 days of treatment, the rats were sacrificed, their brains were removed, the hippocampi dissected out, frozen on dry ice and sent for Western blot analysis. The implanted minipump was also removed to verify proper drug delivery by measuring residual volume.
Preparation of brain tissue; Hippocampi were homogenized in 2 ml sucrose buffer (20 mM Tris pH 7.4, 10% sucrose, complete protease inhibitor cocktail mini-tablets [Roche cat#1-836-153]) for 25 seconds (Omni 115V Tissue Homogenizer TH-115). SDS (at 2%) was immediately added to the homogenate, and the samples were sonicated (Branson Sonifier 250; 10 pulses each). Extracts were total cellular extracts solubilized in SDS and include both cytoplasmic and membrane-bound GLT1.
Western blot analysis: Immunoblotting was performed using a LICOR Odyssey based system which uses IRDye 800 and Alexa Fluor 680 labeled secondary antibodies and signal is detected by diode lasers sensitive to infrared emissions of different wavelength. […]

[1] = Pharmacokinetics of MNP in the rat (plasma, LC/MS/MS); format: in vivo, male Sprague-Dawley rats; details: for concentration at 5 min / concentration at 15 min / concentration at 30 min / concentration at 60 min / concentration at 120 min / concentration at 180 min / concentration at 240 min / concentration at 480 min / concentration at 720 min / concentration at 1440 min: mean ± s.e.m., 3 rats, read-out: MNP plasma levels
Method: Pharmacokinetic experiments were conducted. MNP was dissolved in saline solution (0.9% NaCl) and administered to male Sprague-Dawley rats (weighing 250-315 grams) with vascular catheters surgically placed in both jugular veins (Charles River, Wilmington, Mass.). The catheter on the left jugular vein was used for intravenous infusion of 5 mg/kg MNP (in the animals that received the i.v. dosing), while the catheter on the right jugular vein was used for blood sample collection. Oral doses of MNP (50 and 200 mg/kg) were administered by oral gavage. […] The samples were collected in heparin-coated microtainers, spun down in a microcentrifuge (14,000 rpm for 7 minutes) to separate out the blood plasma and frozen until analyzed. Plasma levels were quantitated by LC/MS/MS analysis (Applied Biosystems/MDS SCIEX API 3000).
The pharmacokinetic parameters Cmax, tmax, area-under-the-curve (AUC), clearance, and half-life (t1/2) were calculated for oral doses of MNP (50 and 200 mg/kg) and are described in Table II. These parameters are compared to the intravenous dose (5 mg/kg) to determine the oral bioavailability (Foral) of MNP in the rat. […] The roughly 30-minute terminal half-life calculated for the intravenous dose of MNP (5 mg/kg) was similar to previously reported data (Umemura et al., Stroke, 1996; 27:1624-1628).

rat = experiment: Other behavioral measures in the rat; format: in vivo; details: 10 mg/kg/day
[2] = male, Sprague-Dawley, plasma, intravenous, 5 mg/kg i.v.
[3] = male, Sprague-Dawley, plasma, iv, 5 mg/kg i.v., approximate value
[4] = male, Sprague-Dawley, plasma, oral, 50 mg/kg p.o.
[5] = male, Sprague-Dawley, plasma, oral, 200 mg/kg p.o.
[6] = male, Sprague-Dawley, plasma, po, 50 mg/kg p.o., approximate value
[7] = male, Sprague-Dawley, plasma, po, 200 mg/kg p.o., approximate value

SMILES: C[C@@H]1CC=NN1C(=O)c1cccnc1 [MNP, (R)-(−)-5-methyl-1-nicotinoyl-2-pyrazoline]
- GLT1B immunoreactivity compared to vehicle controls (GLT1B): no difference
- Time of secondary plasma peak ([1]; 50 mg/kg oral dose): about 8 hours
- ˜Clearance ([1]; 50 mg/kg p.o., approximate value, Clearance = Dose/AUC): ~4.8 mL/min
- Plasma levels at 24 hours post-administration ([1]; 200 mg/kg oral dose): significant plasma levels
- ˜Clearance ([1]; 200 mg/kg p.o., approximate value, Clearance = Dose/AUC): ~7.8 mL/min
- Oral bioavailability (in words) ([1]; based on AUC and Foral for both oral doses (50 and 200 mg/kg)): highly bioavailable
- half-life ([1]; male, Sprague-Dawley, plasma, 5 mg/kg intravenous dose, read-out: Terminal half-life): ~30 min
- concentration at 5 min [1, 2]: 6550 ± 32 ng/mL
- concentration at 15 min [1, 2]: 4530 ± 60 ng/mL
- concentration at 30 min [1, 2]: 2880 ± 95 ng/mL
- concentration at 60 min [1, 2]: 1300 ± 75 ng/mL
- concentration at 120 min [1, 2]: 272 ± 9 ng/mL
- concentration at 180 min [1, 2]: 51 ± 3 ng/mL
- concentration at 240 min [1, 2]: 13 ± 1 ng/mL
- concentration at 480 min [1, 2]: 2 ± 1 ng/mL
- concentration at 720 min [1, 2]: 3 ± 2 ng/mL
- concentration at 1440 min [1, 2]: 2 ± 0.5 ng/mL
- AUC [1, 3]: ~4220 ng·h/mL
- Cmax [1, 3]: ~6550 ng/mL
- Tmax [1, 3]: ~5 min
- clearance ([1]; male, Sprague-Dawley, plasma, iv, 5 mg/kg i.v., approximate value, Clearance = Dose/AUC): ~5.6 mL/min
- bioavailability ([1]; male, Sprague-Dawley, plasma, oral, 50 mg/kg p.o. vs 5 mg/kg i.v., effects of saturation and accumulation unknown, read-out: ˜Bioavailability (Foral; %)): ~119%
- concentration at 5 min [1, 4]: 16000 ± 1720 ng/mL
- concentration at 15 min [1, 4]: 16000 ± 933 ng/mL
- concentration at 30 min [1, 4]: 13600 ± 1120 ng/mL
- concentration at 60 min [1, 4]: 9980 ± 976 ng/mL
- concentration at 120 min [1, 4]: 6140 ± 1980 ng/mL
- concentration at 180 min [1, 4]: 4180 ± 1640 ng/mL
- concentration at 240 min [1, 4]: 2470 ± 792 ng/mL
- concentration at 480 min [1, 4]: 2850 ± 755 ng/mL
- concentration at 720 min [1, 4]: 536 ± 327 ng/mL
- concentration at 1440 min [1, 4]: 9 ± 6 ng/mL
- bioavailability ([1]; male, Sprague-Dawley, plasma, oral, 200 mg/kg p.o. vs 5 mg/kg i.v., effects of saturation and accumulation unknown, read-out: ˜Bioavailability (Foral; %)): ~80%
- concentration at 5 min [1, 5]: 50300 ± 2640 ng/mL
- concentration at 15 min [1, 5]: 41300 ± 3210 ng/mL
- concentration at 30 min [1, 5]: 36500 ± 5570 ng/mL
- concentration at 60 min [1, 5]: 21600 ± 3790 ng/mL
- concentration at 120 min [1, 5]: 11000 ± 2190 ng/mL
- concentration at 180 min [1, 5]: 5700 ± 1970 ng/mL
- concentration at 240 min [1, 5]: 5840 ± 1440 ng/mL
- concentration at 480 min [1, 5]: 2920 ± 343 ng/mL
- concentration at 720 min [1, 5]: 1160 ± 360 ng/mL
- concentration at 1440 min [1, 5]: 6250 ± 2830 ng/mL
- AUC [1, 6]: ~50200 ng·h/mL
- Cmax [1, 6]: ~16000 ng/mL
- Tmax [1, 6]: ~10 min
- half-life ([1]; male, Sprague-Dawley, plasma, po, 50 mg/kg p.o., approximate value, read-out: ˜t1/2): ~150 min
- AUC [1, 7]: ~134000 ng·h/mL
- Cmax [1, 7]: ~50300 ng/mL
- Tmax [1, 7]: ~5 min
- half-life ([1]; male, Sprague-Dawley, plasma, po, 200 mg/kg p.o., approximate value, read-out: ˜t1/2): ~90 min
- bioavailability ([1]; male, Sprague-Dawley, plasma, po, based on the results of Example 2, read-out: Oral bioavailability): ≤ 80%
- Oral absorption ([1]; oral gavage, significant plasma levels at the 5-min time point): rapidly absorbed
- Efficacy in other behavioral measures in the rat (rat): efficacious
